Experiments:
Format in all cases: physicochemical
[1] = Dynamic vapor sorption (DVS), hygroscopicity; conditions: for DVS gain: 0-90% RH; for Hygroscopicity (from DVS weight gain): DVS data of Table 2
Text: Dynamic Vapor Sorption (Allentown, Pa.) was used to measure the hygroscopicity of the anhydrate and monohydrate of the invention (see FIGS. 6 and 7). The step conditions were three hours each at 0%, 30%, 52.5%, 75% and 90% RH, two full cycles.

[2] = Stability studies, long term (XRPD, TGA, HPLC); conditions: non-micronized, three months
Experimental: Non-micronized samples of monohydrate and anhydrate were stored at 40° C./75% RH for three months. The monohydrate was also stored at 40° C. without humidity control. During the three months, the samples were checked after two weeks, one month, two months, and three months.

[3] = Stability, separate study of micronized and non-micronized anhydrate (XRPD)
[4] = Water solubility of the crystal forms; conditions: Table 2 data
[5] = Stability studies, short term (XRPD)
[6] = Stability studies, medium term (XRPD and TGA)
Experimental: Samples of monohydrate were stored at room temperature, 56° C., and 70° C. for one week. At room temperature, humidity was maintained at 0% RH. Humidity was not controlled for the higher temperatures.
The samples were analyzed by XRPD and TGA.

[7] = 40° C. without humidity control

Row | Structure (SMILES) | DVS gain [1] | Hygroscopicity (from DVS weight gain) [1] | Chemical stability (HPLC) ([2]; 40° C./75% RH) | Transformation of crystal form (XRPD and TGA) ([2]; 40° C./75% RH) | Transformation to the monohydrate (XRPD) ([3]; micronized, 25° C./60% RH, three months) | Transformation to the monohydrate (XRPD) ([3]; micronized, 40° C./75% RH, one month) | Transformation to the monohydrate (XRPD) ([3]; non-micronized, 40° C./75% RH) | Water solubility compared between the two forms [4] | Stability of crystal form (XRPD) ([5]; 70° C. for one hour) | Stability of crystal form (XRPD) ([5]; 90° C. after one half hour) | Stability of crystal form (XRPD) ([5]; 90° C. after one hour) | Dehydration on storage (XRPD and TGA) ([6]; 56° C., humidity not controlled, one week) | Dehydration on storage (XRPD and TGA) ([6]; 70° C., humidity not controlled, after 1 day) | Dehydration on storage (XRPD and TGA) ([6]; 70° C., humidity not controlled, after 4 days) | Dehydration on storage (XRPD and TGA) ([6]; 70° C., humidity not controlled, after 7 days) | Dehydration on storage (XRPD and TGA) ([6]; room temperature, 0% RH, one week) | Chemical stability (HPLC) [2, 7] | Transformation of crystal form (XRPD and TGA) [2, 7]
1 | C=Cc1cc(O)cc2nc(-c3ccc(O)c(F)c3)oc12 [Anhydrate, 2-(3-fluoro-4-hydroxyphenyl)-7-vinyl-1,3-benzoxazol-5-ol] | 0.2% gain (0-90% RH) | largely non-hygroscopic | chemically stable | did not transform | did not transform to the monohydrate | partially transform to the monohydrate | did not show any obvious transformation |  |  |  |  |  |  |  |  |  |  | 
2 | C=Cc1cc(O)cc2nc(-c3ccc(O)c(F)c3)oc12 [Monohydrate, 2-(3-fluoro-4-hydroxyphenyl)-7-vinyl-1,3-benzoxazol-5-ol] | 0.1% gain (0-90% RH) | largely non-hygroscopic | chemically stable | did not transform |  |  |  | significantly lower solubility than the anhydrate | stable | partially dehydrated | completely dehydrated | no obvious dehydration | no obvious hydration | partially dehydrated | mostly dehydrated | no obvious dehydration | chemically stable | did not transform

From patent US7683182B2, “Crystal forms of 2-(3-fluoro-4-hydroxyphenyl)-7-vinyl-1,3-benzoxazol-5-ol” (Wyeth LLC, priority 2005, dated 2010)
